Data set [1] in a line: Pharmacokinetics in female Balb/c mice. Format: in vivo. The settings on record: mouse, plasma, single intravenous injection / single oral administration; for bioavailability: read-out: Bioavailability F; for AUC: read-out: Concentration integral AUC; for half-life: read-out: Half-life T1/2 (converted). As to the method:
Objective: To test the pharmacokinetics of compounds in female Balb/c mice in vivo
Balb/c mice (female, 15-30 g, 7-9 weeks old, Shanghai Lingchang)
The pharmacokinetics profile of the compounds in rodent after intravenous injection and oral administrations was tested using a standard protocol. In the assay, the candidate compound was formulated into a clear solution and administrated to the mice through a single intravenous injection, and formulated into a uniform suspension and administrated to the mice through a single oral administration. […] The whole blood samples were collected within 24 hours, centrifuged at 3000 g at 4° C. for 15 minutes, and plasma samples were obtained by separating the supernatant. 20 times volume of acetonitrile solution containing an internal standard was added to precipitate proteins. After centrifugation, the supernatant was collected, to which an equal volume of water was added, and further centrifuged to collect the supernatant. The LC-MS/MS method was used to quantitatively analyze the plasma concentration, and the pharmacokinetics parameters, such as peak concentration, peak time, clearance rate, half-life, area under the curve, and bioavailability were calculated.

A short description of data set [2]: Determination of kinetic solubility. The format is physicochemical. Particulars: aqueous buffer, kinetic from dmso stock, 50 mM phosphate buffer pH 7.4, 24 hours, room temperature, 200 μM maximum. On the procedure:
The test compounds were dissolved in DMSO to prepare 10 mmol/L stock solutions. The stock solutions were diluted with 50% ACN/50 mM phosphate buffer (pH 7.4) to prepare standard solutions (1 μM, 20 μM, […]).
490 μL of dissolution medium (50 mM phosphate buffer solution, pH 7.4) was pipetted into a 96-well plate with a single-well volume of 2 mL using a pipette (Eppendorf Research Inc.). 10 μL of the stock solution of each test compounds and QC sample (10 mmol/L DMSO stock solution) were added to the dissolution medium, respectively, and the sample plate was sealed with a sealing film. The final concentration of the test compounds and DMSO in the sample solution were 200 μM and 2%, respectively. The mixture was shaken at 600 rpm for 24 hours at room temperature. 200 μL of the sample solution was transferred into a 96-well filter plate using a pipette and filtered with suction. The filtrate and the standard solution were detected by high performance liquid chromatography (HPLC-DAD). The concentration of the test compounds in the filtrate was calculated by an external standard method, which was the kinetic solubility of the compounds.

Data set [3] deals with T1, Human adenosine A2A receptor (Homo sapiens, UniProt P29274).
T1 construct: host or cells: CHO
T1 sequence (P29274 whole entry): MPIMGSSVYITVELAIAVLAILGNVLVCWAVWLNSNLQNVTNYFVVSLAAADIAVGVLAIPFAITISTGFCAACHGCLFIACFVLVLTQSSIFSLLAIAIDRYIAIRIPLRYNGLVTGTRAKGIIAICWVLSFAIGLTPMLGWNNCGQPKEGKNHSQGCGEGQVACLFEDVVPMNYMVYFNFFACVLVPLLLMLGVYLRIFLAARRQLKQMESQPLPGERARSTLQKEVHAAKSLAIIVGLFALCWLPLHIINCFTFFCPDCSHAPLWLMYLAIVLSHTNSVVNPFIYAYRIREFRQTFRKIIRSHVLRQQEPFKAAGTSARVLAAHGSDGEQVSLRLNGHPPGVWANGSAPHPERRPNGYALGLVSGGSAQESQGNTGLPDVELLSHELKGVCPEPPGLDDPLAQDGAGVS
The data set can be described thus: Human adenosine A2A receptor calcium flux assay. Format: cell-based. The settings on record: A2A stable CHO cell strain, antagonist mode against agonist NECA at EC80, FLIPR Fluo-4. On the procedure: Human adenosine A2A receptor calcium flux assay
A2A stable cell strain was constructed by Shanghai WuXi PharmaTech, and the host cell was CHO.
Fluo-4 Direct Kit (Invitrogen, Cat. No. F10471). After the fluorescent detection reagent (specifically binding to calcium ions and causing an increase in fluorescence signal) in the kit was incubated with the cells for a suitable period of time, the compound was added to stimulate the cells to cause changes in intracellular calcium flux, thereby causing changes in the fluorescent signal, which can reflect the strength of the agonistic or inhibitory activity of the compound.
F12+10% fetal bovine serum+geneticin 300 ug/ml+blasticidin 2 ug/ml Compound dilution buffer:
Hanks Balanced Salt Buffer (Invitrogen)+20 mM HEPES, configured before each use
The test compounds were dissolved in DMSO to prepare 10 mM stock solutions. The test compounds were diluted to 0.2 mM with DMSO, and the reference compound CGS-15943 was diluted to 0.015 mM with DMSO. Next, 10 points of three-fold serial dilutions were made with ECHO. 900 nl was transferred to the compound plate (Greiner-781280), and 30 ul of compound dilution buffer was added. The final starting concentration of the test compounds was 1 uM and CGS-15943 was 0.075 uM.
Cryopreserved A2A cells were resuscitated, and then resuspended in culture medium to 1×10^6 cells/ml. The suspension was seeded into 384-well polylysine-coated cell plates (Greiner-781946) at 20 μl/well and incubated overnight in a 5% CO2 incubator at 37° C.
The cell plate prepared the day before was taken out from the incubator, and 20 ul of 2× Fluo-4 Direct™ buffer was added to each well. The plate was incubated for 50 minutes in a 5% CO2 incubator at 37° C. and allowed to stand at room temperature for 10 minutes.
Dilution of agonist NECA: 10 points of three-fold serial dilutions were made with Echo for NECA from a starting concentration of 0.15 mM. 900 nL was then transferred to the corresponding compound plate; and then 30 μl of compound dilution buffer was added to the corresponding compound plate. The final starting concentration was 750 nM.
FLIPR instrument software was run. According to the programmed procedure, 10 ul of compound dilution buffer was added to the cell plate and the fluorescence signal was read. 10 ul of the agonist reference compound at the indicated concentration was then added to the cell plate and the fluorescent signal was read. After reading, the data was exported by the “Max-Min”, “Read 90 to Maximum allowed” method in the software, and the EC80 of the A2A cell line was calculated. The agonist was prepared at a concentration of 6× EC80. A 6× EC80 concentration of a reference compound agonist of the corresponding cells was prepared with a buffer solution, and added at 30 ul/well to the corresponding compound plate for use.
FLIPR instrument software was run. According to the programmed procedure, 10 μl of the test compounds and reference compound at an indicated concentration was added to the cell plate and the fluorescence signal was read. 10 ul of the reference compound agonist at a concentration of 6× EC80 was then added to the cell plate and the fluorescent signal was read. For the agonist detection of the compounds, the data was exported by the “Max-Min”, “Read 1 to 90” method in the software. For the antagonist detection of the compound, the data was exported by the “Max-Min”, “Read 90 to Maximum allowed” method in the software. Data were analyzed by GraphPad Prism 5.0 and the IC50 values of the test compounds were calculated.

Values after ≈ are worked out from the molar mass of the structure shown. Some results are limits rather than exact numbers.

As to `Cc1cc(-c2nnc(N)nc2-c2ccccc2)cc(C(F)(F)F)n1` [Compound A, reference compound], in data set [1], the clearance amounted to 208 mL/min/kg, the bioavailability stood at 21.6%, the AUC amounted to 0.501 µM·h and the half-life is 0.28 h. In data set [2], this compound displayed a solubility at 24 h of 29.2 µM (≈ 9.67 µg/mL).
Regarding `Cc1cc(-c2c(-c3ccccc3)nc(N)n3ncnc23)cc(C(F)(F)F)n1` [Example A-1], the IC50 in data set [3] was found to be 0.23 nM. Besides, in data set [1], the clearance was found to be 51.2 mL/min/kg, the bioavailability was 41.1%, the AUC is 3.33 µM·h and the half-life was 0.47 h. In data set [2], the solubility at 24 h stood at 185 µM (≈ 68.5 µg/mL).
Regarding `Cc1cc(-c2c(-c3cccc(F)c3)nc(N)n3ncnc23)cc(C(F)(F)F)n1` [Example A-2], in data set [3], the IC50 worked out at 0.38 nM. Besides, in data set [1], the clearance is 44.9 mL/min/kg, the bioavailability stood at 62.1%, the AUC worked out at 5.93 µM·h and the half-life is 0.8 h.
`Cc1cc(-c2c(-c3cccc(F)c3F)nc(N)n3ncnc23)cc(C(F)(F)F)n1` [Example A-3]: the IC50 in data set [3] was determined as 0.32 nM. This compound came in with a solubility at 24 h in data set [2] of 92.5 µM (≈ 37.6 µg/mL).
Regarding `COc1ccccc1-c1nc(N)n2ncnc2c1-c1cc(C)nc(C(F)(F)F)c1` [Example A-4], the IC50 in data set [3] stood at 1.08 nM. Also, in data set [2], the solubility at 24 h amounted to 160 µM (≈ 64.1 µg/mL).
In the case of `Cc1cc(-c2c(-c3ccccc3)nc(N)n3ncnc23)cc(C)n1` [Example B-5], the IC50 in data set [3] is 0.28 nM. Besides, in data set [1], the clearance stood at 24 mL/min/kg, the bioavailability came to 91%, the AUC is 19.6 µM·h and the half-life was 0.33 h. This compound came in with a solubility at 24 h in data set [2] of 197 µM (≈ 62.3 µg/mL).
As to `Nc1nc(-c2ccccc2)c(-c2cc(Cl)nc(C(F)(F)F)c2)c2ncnn12` [Example B-28], the IC50 in data set [3] amounted to 1.55 nM. In addition, the solubility at 24 h in data set [2] worked out at 54.5 µM (≈ 21.3 µg/mL).
`Cc1cc(-c2c(-c3ccccc3)nc(N)n3ncnc23)cc(Cl)n1` [Example B-31]: in data set [3], the IC50 amounted to 0.28 nM. Further, in data set [1], the clearance worked out at 44.3 mL/min/kg, the bioavailability was determined as 17.4%, the AUC turned out to be 1.73 µM·h and the half-life was 0.25 h. Also, the solubility at 24 h in data set [2] was found to be 56 µM (≈ 18.9 µg/mL).
In the case of `Cc1cc(-c2c(-c3ccccc3)nc(N)n3nc(C(F)(F)F)nc23)cc(C(F)(F)F)n1` [Example C-1], the IC50 in data set [3] turned out to be 1.65 nM. Moreover, in data set [1], the clearance came to 11.7 mL/min/kg, the bioavailability came out at 40.5%, the AUC was 13.2 µM·h and the half-life was 3.95 h.
In the same order, the values of `Cc1cc(-c2c(-c3ccccc3)nc(N)n3nc(C(F)(F)F)nc23)cc(C)n1` [Example C-2] are 2.97 nM, 8.76 mL/min/kg, 50.4%, 24.9 µM·h and 2 h.
For `Cc1cc(-c2c(-c3ccccc3)nc(N)n3nc(CO)nc23)cc(C)n1` [Example C-19], in data set [3], the IC50 amounted to 0.4 nM. In addition, in data set [1], the clearance was determined as 38.7 mL/min/kg, the bioavailability came out at 70.7%, the AUC worked out at 8.79 µM·h and the half-life was 0.92 h. The same compound registered a solubility at 24 h in data set [2] of 194 µM (≈ 67.2 µg/mL).
With `Cc1cc(-c2c(-c3ccccc3)nc(N)n3nc(CO)nc23)cc(C(F)(F)F)n1` [Example C-33], in data set [3], the IC50 was determined as 0.65 nM. Moreover, in data set [1], the clearance is 18 mL/min/kg, the bioavailability is 95.2%, the AUC amounted to 22 µM·h and the half-life is 1.2 h. Moreover, the solubility at 24 h in data set [2] was > 200 µM.
In the case of `Cc1cc(-c2c(-c3ccc(F)cc3)nc(N)n3nc(C(F)(F)F)nc23)cc(Cl)n1` [Example C-41], the IC50 in data set [3] turned out to be 4.99 nM. In data set [1], the clearance came to 5.53 mL/min/kg, the bioavailability stood at 41.2%, the AUC amounted to 25.1 µM·h and the half-life is 8.04 h.
With `Cc1cc(-c2c(-c3ccc(F)cc3)nc(N)n3nc(CO)nc23)cc(C(F)(F)F)n1` [Example C-43], in data set [3], the IC50 was 1.36 nM. In data set [1], the clearance was found to be 7.51 mL/min/kg, the bioavailability was determined as 82.9%, the AUC is 43.9 µM·h and the half-life was 1.99 h. The compound further gave a solubility at 24 h in data set [2] of 168 µM (≈ 70.3 µg/mL).
In the case of `Cc1cc(-c2c(-c3ccc(F)cc3)nc(N)n3nc(C)nc23)cc(C(F)(F)F)n1` [Example C-46], the IC50 in data set [3] came out at 3.08 nM. Also, in data set [1], the clearance was determined as 0.54 mL/min/kg, the bioavailability was found to be 44%, the AUC is 20.1 µM·h and the half-life is 1.92 h. Also, the solubility at 24 h in data set [2] worked out at 172 µM (≈ 69.2 µg/mL).
Turning to `Cc1cc(-c2c(-c3ccc(F)cc3)nc(N)n3nc(C(F)(F)F)nc23)cc(C)n1` [Example C-57], in data set [3], the IC50 was 4.49 nM. Moreover, in data set [1], the clearance was found to be 3.94 mL/min/kg, the bioavailability worked out at 69.3%, the AUC was found to be 71.7 µM·h and the half-life was 3.2 h.
In the case of `Nc1nc(-c2ccc(F)cc2)c(-c2cc(Cl)nc(C(F)(F)F)c2)c2nc(CO)nn12` [Example C-58], in data set [3], the IC50 worked out at 1.72 nM. In data set [1], the clearance is 2.5 mL/min/kg, the bioavailability came to 123%, the AUC turned out to be 157 µM·h and the half-life was 7.26 h. In data set [2], the solubility at 24 h is 78.9 µM (≈ 34.6 µg/mL).

The record behind these values is patent publication US11117899B2, “[1,2,4]triazolo[1,5-c]pyrimidine derivative as A2A receptor inhibitor” (MEDSHINE DISCOVERY INC., priority 2017, dated 2021).
